Experimental data as given in patent US12344600B2, “c-Myc mRNA translation modulators and uses thereof in the treatment of cancer” (Anima Biotech Inc., priority 2022, dated 2025).

System: c-Myc
Test: c-Myc immunofluorescence assay
Format: cell-based, human
Details: A549 cells, 24 hours, anti-c-Myc immunofluorescence
Procedure, shortened: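 A549 NSCLC cells grown 48 h, then treated 24 h with increasing compound concentrations; fixed in 4% paraformaldehyde, stained with anti-c-Myc antibody plus fluorescent secondary and DAPI. Per-cell c-Myc fluorescence quantified by high-content imaging at 20×; dose-response fitted by logistic regression to give EC50.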

Compound | Myc Efficacy (−LogEC50)
CC(=O)Nc1ccc(-c2noc(N3CCC(C(=O)NCC4CCN(Cc5ccc(C)cc5)C4)CC3)n2)cc1 (stereo not shown) [Compound 184, 1-(3-(4-acetamidophenyl)-1,2,4-oxadiazol-5-yl)-N-((1-(4-methylbenzyl)pyrrolidin-3-yl)methyl)piperidine-4-carboxamide] | + (+ >3 and <5)
Cc1ccc(CN2CCC(CNC(=O)N3CCN(c4nc(-c5ccc(OCCO)cc5)no4)CC3)C2)cc1 (stereo not shown) [Compound 462, 4-(3-(4-(2-hydroxyethoxy)phenyl)-1,2,4-oxadiazol-5-yl)-N-((1-(4-methylbenzyl)pyrrolidin-3-yl)methyl)piperazine-1-carboxamide] | ++ (++ ≥5 and <6)
COc1ccc(-c2noc(N3CCC(C(=O)NCC4CCN(Cc5cccs5)C4)CC3)n2)cc1 (stereo not shown) [Compound 372, 1-(3-(4-methoxyphenyl)-1,2,4-oxadiazol-5-yl)-N-((1-(thiophen-2-ylmethyl)pyrrolidin-3-yl)methyl)piperidine-4-carboxamide] | ++ (++ ≥5 and <6)
O=C(NCc1cccnc1)C1CCN(c2nc(-c3ccc(O)cc3)no2)CC1 [Compound 178, 1-(3-(4-hydroxyphenyl)-1,2,4-oxadiazol-5-yl)-N-(pyridin-3-ylmethyl)piperidine-4-carboxamide] | + (+ >3 and <5)
COc1ccc(-c2noc(N3CCN(C(=O)Nc4cccc(Cl)c4)CC3)n2)cc1 [Compound 194, N-(3-chlorophenyl)-4-(3-(4-methoxyphenyl)-1,2,4-oxadiazol-5-yl)piperazine-1-carboxamide] | + (+ >3 and <5)
COc1ccc(-c2noc(N3CCC(C(=O)NCc4ccccc4OC(F)F)CC3)n2)cc1 [Compound 284, N-(2-(difluoromethoxy)benzyl)-1-(3-(4-methoxyphenyl)-1,2,4-oxadiazol-5-yl)piperidine-4-carboxamide] | + (+ >3 and <5)
COc1ccc(-c2noc(N3CCC(C(=O)NCC4CCN(CC5CCC5)C4)CC3)n2)cc1 (stereo not shown) [Compound 336, N-((1-(cyclobutylmethyl)pyrrolidin-3-yl)methyl)-1-(3-(4-methoxyphenyl)-1,2,4-oxadiazol-5-yl)piperidine-4-carboxamide] | ++ (++ ≥5 and <6)
COc1ccc(-c2noc(N3CCN(C(=O)NCC4CCN(c5ccccc5)C4)CC3)n2)cc1 (stereo not shown) [Compound 345, 4-(3-(4-methoxyphenyl)-1,2,4-oxadiazol-5-yl)-N-((1-phenylpyrrolidin-3-yl)methyl)piperazine-1-carboxamide] | + (+ >3 and <5)
COc1ccc(-c2noc(N3CCC(C(=O)NC4CCN(c5ccccc5)C4)CC3)n2)cc1 (stereo not shown) [Compound 346, 1-(3-(4-methoxyphenyl)-1,2,4-oxadiazol-5-yl)-N-(1-phenylpyrrolidin-3-yl)piperidine-4-carboxamide] | ++ (++ ≥5 and <6)
Cc1ccc(CN2CCC(CNC(=O)C3CCN(c4nc(-c5cccc(O)c5)no4)CC3)C2)cc1 (stereo not shown) [Compound 199, 1-(3-(3-hydroxyphenyl)-1,2,4-oxadiazol-5-yl)-N-((1-(4-methylbenzyl)pyrrolidin-3-yl)methyl)piperidine-4-carboxamide] | + (+ >3 and <5)
O=C(NCCCN1CCC(Cc2ccccn2)CC1)C1CCN(c2nc(-c3ccc(OC(F)F)cc3)no2)CC1 [Compound 453, 1-(3-(4-(difluoromethoxy)phenyl)-1,2,4-oxadiazol-5-yl)-N-(3-(4-(pyridin-2-ylmethyl)piperidin-1-yl)propyl)piperidine-4-carboxamide] | +++ (+++ ≥6)
CC(=O)Nc1cccc(-c2noc(N3CCC(C(=O)NCC4CCN(Cc5ccc(C)cc5)C4)CC3)n2)c1 (stereo not shown) [Compound 230, 1-(3-(3-acetamidophenyl)-1,2,4-oxadiazol-5-yl)-N-((1-(4-methylbenzyl)pyrrolidin-3-yl)methyl)piperidine-4-carboxamide] | + (+ >3 and <5)
COc1cnc(-c2noc(N3CCC(C(=O)NCC4CCN(Cc5ccc(C)cc5)C4)CC3)n2)nc1 (stereo not shown) [Compound 247, 1-(3-(5-methoxypyrimidin-2-yl)-1,2,4-oxadiazol-5-yl)-N-((1-(4-methylbenzyl)pyrrolidin-3-yl)methyl)piperidine-4-carboxamide] | + (+ >3 and <5)
COc1ccc(-c2noc(N3CCC(C(=O)NCC4CCN(Cc5ccccc5C)C4)CC3)n2)cc1 (stereo not shown) [Compound 328, 1-(3-(4-methoxyphenyl)-1,2,4-oxadiazol-5-yl)-N-((1-(2-methylbenzyl)pyrrolidin-3-yl)methyl)piperidine-4-carboxamide] | ++ (++ ≥5 and <6)
COc1ccc(-c2noc(N3CCC(C(=O)NCc4cc5cccnc5[nH]4)CC3)n2)cc1 [Compound 418, N-((1H-pyrrolo[2,3-b]pyridin-2-yl)methyl)-1-(3-(4-methoxyphenyl)-1,2,4-oxadiazol-5-yl)piperidine-4-carboxamide] | + (+ >3 and <5)
COc1ccc(-c2noc(N3CCN(C(=O)N4CCCC(CC(C)C)C4)CC3)n2)cc1 (stereo not shown) [Compound 226, (3-isobutylpiperidin-1-yl)(4-(3-(4-methoxyphenyl)-1,2,4-oxadiazol-5-yl)piperazin-1-yl)methanone] | + (+ >3 and <5)
COc1ccc(-c2noc(N3CCC(C(=O)NCc4ccc(Cl)cc4)CC3)n2)cc1 [Compound 123, N-(4-chlorobenzyl)-1-(3-(4-methoxyphenyl)-1,2,4-oxadiazol-5-yl)piperidine-4-carboxamide] | + (+ >3 and <5)
COc1ccc(-c2noc(N3CCC(C(=O)NCC4CCN(Cc5cncc(C)c5)C4)CC3)n2)cc1 (stereo not shown) [Compound 365, 1-(3-(4-methoxyphenyl)-1,2,4-oxadiazol-5-yl)-N-((1-((5-methylpyridin-3-yl)methyl)pyrrolidin-3-yl)methyl)piperidine-4-carboxamide] | ++ (++ ≥5 and <6)
COc1ccc(-c2noc(N3CCC(C(=O)Nc4ccccc4)CC3)n2)cc1 [Compound 143, 1-(3-(4-methoxyphenyl)-1,2,4-oxadiazol-5-yl)-N-phenylpiperidine-4-carboxamide] | ++ (++ ≥5 and <6)
O=C(NCCCN1CCC(Cc2ccccc2F)CC1)N1CCN(c2nc(-c3ccc(OC(F)(F)F)cc3)no2)CC1 [Compound 429, N-(3-(4-(2-fluorobenzyl)piperidin-1-yl)propyl)-4-(3-(4-(trifluoromethoxy)phenyl)-1,2,4-oxadiazol-5-yl)piperazine-1-carboxamide] | +++ (+++ ≥6)
O=C(NCCCN1CCC(Cc2ccccn2)CC1)N1CCN(c2nc(-c3ccc(C(F)F)cc3)no2)CC1 [Compound 460, 4-(3-(4-(difluoromethyl)phenyl)-1,2,4-oxadiazol-5-yl)-N-(3-(4-(pyridin-2-ylmethyl)piperidin-1-yl)propyl)piperazine-1-carboxamide] | +++ (+++ ≥6)
COc1ccc(-c2noc(N3CCN(C(=O)NCCCN4CCC(Cc5ccccc5)CC4)CC3)n2)cc1 [Compound 207, N-(3-(4-benzylpiperidin-1-yl)propyl)-4-(3-(4-methoxyphenyl)-1,2,4-oxadiazol-5-yl)piperazine-1-carboxamide] | +++ (+++ ≥6)
